Test results published in patent US20140031278A1, “Novel Glucagon Analogues” (NOVO NORDISK A/S, priority 2011, published 2014).
*1 amine or outer side, *2 acyl side, *3 side chain or, on linkers, in order; H or OH if unused. Where a SMILES comes first, the peptide text is derived from it. Side-chain parts run from the residue outwards. The star is where a group is joined. γGlu = O=C(O)[C@H](CCC(=O)[*:2])N[*:1]; Butyryl = CCCC(=O)*

Target: T1, glucagon receptor (Homo sapiens, UniProt P47871)
T1 construct: expressed in transfected cells
T1 sequence (P47871 26-477): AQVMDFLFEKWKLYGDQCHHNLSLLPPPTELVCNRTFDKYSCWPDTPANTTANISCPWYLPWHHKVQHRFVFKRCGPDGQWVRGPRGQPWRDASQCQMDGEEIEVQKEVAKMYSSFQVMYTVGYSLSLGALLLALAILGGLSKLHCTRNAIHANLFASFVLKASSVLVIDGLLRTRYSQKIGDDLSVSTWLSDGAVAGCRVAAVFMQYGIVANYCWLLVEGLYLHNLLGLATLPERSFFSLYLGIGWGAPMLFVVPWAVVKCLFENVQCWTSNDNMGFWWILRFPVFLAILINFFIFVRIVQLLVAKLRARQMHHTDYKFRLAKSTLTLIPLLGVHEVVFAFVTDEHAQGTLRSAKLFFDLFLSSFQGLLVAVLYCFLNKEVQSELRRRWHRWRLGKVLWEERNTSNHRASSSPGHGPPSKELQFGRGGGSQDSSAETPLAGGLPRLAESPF
Assay: Assay (I) Glucagon activity (cAMP biosensor, FLIPR)
Type: cell-based
Conditions: HEK-293 cells with cloned glucagon receptor and cAMP biosensor; end point after 6 minutes
Description: The glucagon receptor was cloned into HEK-293 cells having a membrane bound cAMP biosensor (ACTOne™). The cells (14000 per well) were incubated (37° C., 5% CO2) overnight in 384-well plates. Next day the cells were loaded with a calcium responsive dye that only distributed into the cytoplasm. Probenecid, an inhibitor of the organic anion transporter, was added to prevent the dye from leaving the cell. A PDE inhibitor was added to prevent formatted cAMP from being degraded, The plates were placed into a […] and the glucagon analogues were added. End point data were collected after 6 minutes. An increase in intracellular cAMP was proportional to an increased in calcium concentrations in the cytoplasm. When calcium was bound the dry a fluorescence signal was generated. EC50-values were calculated in Prism5.

SMILES | EC50
CC[C@H](C)[C@H](NC(=O)[C@H](CC(=O)O)NC(=O)[C@H](CC(C)C)NC(=O)[C@H](Cc1ccc(O)cc1)NC(=O)[C@H](CCCCN)NC(=O)[C@H](CO)NC(=O)[C@H](Cc1ccc(O)cc1)NC(=O)[C@H](CC(=O)O)NC(=O)[C@H](CO)NC(=O)[C@@H](NC(=O)[C@H](Cc1ccccc1)NC(=O)[C@@H](NC(=O)CNC(=O)[C@H](CCC(N)=O)NC(=O)[C@H](CO)NC(=O)[C@@H](N)Cc1c[nH]cn1)[C@@H](C)O)[C@@H](C)O)C(=O)N[C@@H](CCCNC(=N)N)C(=O)N[C@@H](CCCNC(=N)N)C(=O)N[C@@H](C)C(=O)N[C@@H](CCC(N)=O)C(=O)N[C@@H](CC(=O)O)C(=O)N[C@@H](Cc1ccccc1)C(=O)N[C@H](C(=O)N[C@@H](CCCCNC(=O)CC[C@H](NC(=O)CC[C@H](NC(=O)CC[C@H](NC(=O)CC[C@H](NC(C)=O)C(=O)O)C(=O)O)C(=O)O)C(=O)O)C(=O)N[C@@H](Cc1c[nH]c2ccccc12)C(=O)N[C@@H](CC(C)C)C(=O)N[C@@H](CC(C)C)C(=O)N[C@@H](CO)C(=O)N[C@H](C(=O)O)[C@@H](C)O)C(C)C [Example 36, N^ε24-[(4S)-4-[[(4S)-4-[[(4S)-4-[[(4S)-4-acetamido-4-carboxybutanoyl]amino]-4-carboxybutanoyl]amino]-4-carbox[…]ybutanoyl]amino]-4-carboxybutanoyl]-[Ile16,Lys24,Leu27,Ser28]-Glucagon] | 0.0025 nM
CC(=O)N[C@@H](CCC(=O)N[C@@H](CCC(=O)N[C@@H](CCC(=O)N[C@@H](CCC(=O)NCCCC[C@H](NC(=O)[C@@H](NC(=O)[C@H](Cc1ccccc1)NC(=O)[C@H](CC(=O)O)NC(=O)[C@H](C)NC(=O)[C@H](C)NC(=O)[C@H](CCCNC(=N)N)NC(=O)[C@H](CCCNC(=N)N)NC(=O)[C@H](CC(C)C)NC(=O)[C@H](CC(=O)O)NC(=O)[C@H](CC(C)C)NC(=O)[C@H](Cc1ccc(O)cc1)NC(=O)[C@H](CCCCN)NC(=O)[C@H](CO)NC(=O)[C@@H](NC(=O)[C@H](CC(=O)O)NC(=O)[C@H](CO)NC(=O)[C@@H](NC(=O)[C@H](Cc1ccccc1)NC(=O)[C@@H](NC(=O)CNC(=O)[C@H](Cc1c[nH]cn1)NC(=O)[C@H](C)NC(=O)[C@@H](N)Cc1c[nH]cn1)[C@@H](C)O)[C@@H](C)O)C(C)C)C(C)C)C(=O)N[C@@H](Cc1c[nH]c2ccccc12)C(=O)N[C@@H](CC(C)C)C(=O)N[C@@H](CC(C)C)C(=O)N[C@@H](CO)C(=O)N[C@H](C(=O)O)[C@@H](C)O)C(=O)O)C(=O)O)C(=O)O)C(=O)O [Example 62, N^ε24-[(4S)-4-[[(4S)-4-[[(4S)-4-[[(4S)-4-acetamido-4-carboxybutanoyl]amino]-4-carboxybutanoyl]amino]-4-carboxybutanoyl]amino]-4-carboxybutanoyl]-[Ala^2,His^3,Val^10,Leu^16,Ala^20,Lys^24,Leu^27,Ser^28]-Glucagon] (H-HAHGTFTSDVSKYLDLRRAADFVK([γGlu-γGlu-γGlu-γGlu-Ac])WLLST-OH) | 0.052 nM
CC(=O)N[C@@H](CCC(=O)N[C@@H](CCC(=O)N[C@@H](CCC(=O)N[C@@H](CCC(=O)NCCCC[C@H](NC(=O)[C@@H](NC(=O)[C@H](Cc1ccccc1)NC(=O)[C@H](CC(=O)O)NC(=O)[C@H](C)NC(=O)[C@H](C)NC(=O)[C@H](CCCNC(=N)N)NC(=O)[C@H](CCCNC(=N)N)NC(=O)[C@H](CC(C)C)NC(=O)[C@H](CC(=O)O)NC(=O)[C@H](CC(C)C)NC(=O)[C@H](Cc1ccc(O)cc1)NC(=O)[C@H](CCCNC(=N)N)NC(=O)[C@H](CO)NC(=O)[C@H](Cc1ccc(O)cc1)NC(=O)[C@H](CC(=O)O)NC(=O)[C@H](CO)NC(=O)[C@@H](NC(=O)[C@H](Cc1ccccc1)NC(=O)[C@@H](NC(=O)CNC(=O)[C@H](CCC(N)=O)NC(=O)[C@H](CO)NC(=O)[C@@H](N)Cc1c[nH]cn1)[C@@H](C)O)[C@@H](C)O)C(C)C)C(=O)N[C@@H](Cc1c[nH]c2ccccc12)C(=O)N[C@@H](CC(C)C)C(=O)N[C@@H](CC(C)C)C(=O)N[C@@H](CO)C(=O)N[C@H](C(=O)O)[C@@H](C)O)C(=O)O)C(=O)O)C(=O)O)C(=O)O [Example 56, N^ε24-[(4S)-4-[[(4S)-4-[[(4S)-4-[[(4S)-4-acetamido-4-carboxybutanoyl]amino]-4-carboxybutanoyl]amino]-4-carboxybutanoyl]amino]-4-carboxybutanoyl]-[Arg^12,Leu^16,Ala^20,Lys^24,Leu^27,Ser^28]-Glucagon] (H-HSQGTFTSDYSRYLDLRRAADFVK([γGlu-γGlu-γGlu-γGlu-Ac])WLLST-OH) | 0.02 nM
CC(=O)N[C@@H](CCC(=O)N[C@@H](CCC(=O)N[C@@H](CCC(=O)N[C@@H](CCC(=O)NCCCC[C@H](NC(=O)[C@H](CO)NC(=O)[C@H](CC(C)C)NC(=O)[C@H](CC(C)C)NC(=O)[C@H](Cc1c[nH]c2ccccc12)NC(=O)[C@H](CCC(N)=O)NC(=O)[C@@H](NC(=O)[C@H](Cc1ccccc1)NC(=O)[C@H](CC(=O)O)NC(=O)[C@H](CCC(N)=O)NC(=O)[C@H](C)NC(=O)[C@H](CCCNC(=N)N)NC(=O)[C@H](CCCNC(=N)N)NC(=O)[C@H](CO)NC(=O)[C@H](CC(=O)O)NC(=O)[C@H](CC(C)C)NC(=O)[C@H](Cc1ccc(O)cc1)NC(=O)[C@H](CCCCN)NC(=O)[C@H](CO)NC(=O)[C@H](Cc1ccc(O)cc1)NC(=O)[C@H](CC(=O)O)NC(=O)[C@H](CO)NC(=O)[C@@H](NC(=O)[C@H](Cc1ccccc1)NC(=O)[C@@H](NC(=O)CNC(=O)[C@H](CCC(N)=O)NC(=O)[C@H](CO)NC(=O)[C@@H](N)Cc1c[nH]cn1)[C@@H](C)O)[C@@H](C)O)C(C)C)C(=O)O)C(=O)O)C(=O)O)C(=O)O)C(=O)O [Example 52, N^ε^29-[(4S)-4-[[(4S)-4-[[(4S)-4-[[(4S)-4-acetamido-4-carboxybutanoyl]amino]-4-carboxybutanoyl]amino]-4-carboxybutanoyl]amino]-4-carboxybutanoyl]-[Leu^27,Ser^28,Lys^29]-Glucagon] | 0.01 nM
CCCC(=O)N[C@@H](CCC(=O)N[C@@H](CCC(=O)N[C@@H](CCC(=O)N[C@@H](CCC(=O)NCCCC[C@H](NC(=O)[C@@H](NC(=O)[C@H](Cc1ccccc1)NC(=O)[C@H](CC(=O)O)NC(=O)[C@H](C)NC(=O)[C@H](C)NC(=O)[C@H](CCCNC(=N)N)NC(=O)[C@H](CCCNC(=N)N)NC(=O)[C@H](CC(C)C)NC(=O)[C@H](CC(=O)O)NC(=O)[C@H](CC(C)C)NC(=O)[C@H](Cc1ccc(O)cc1)NC(=O)[C@H](CCCNC(=N)N)NC(=O)[C@H](CO)NC(=O)[C@H](Cc1ccc(O)cc1)NC(=O)[C@H](CC(=O)O)NC(=O)[C@H](CO)NC(=O)[C@@H](NC(=O)[C@H](Cc1ccccc1)NC(=O)[C@@H](NC(=O)CNC(=O)[C@H](CCC(N)=O)NC(=O)[C@H](CO)NC(=O)[C@@H](N)Cc1c[nH]cn1)[C@@H](C)O)[C@@H](C)O)C(C)C)C(=O)N[C@@H](Cc1c[nH]c2ccccc12)C(=O)N[C@@H](CC(C)C)C(=O)N[C@@H](CC(C)C)C(=O)N[C@@H](CO)C(=O)N[C@H](C(=O)O)[C@@H](C)O)C(=O)O)C(=O)O)C(=O)O)C(=O)O [Example 65, N^ε24-[(4S)-4-[[(4S)-4-[[(4S)-4-[[(4S)-4-(butanoylamino)-4-carboxybutanoyl]amino]-4-carboxybutanoyl]amino]-4-carboxybutanoyl]amino]-4-carboxybutanoyl]-[Arg^12,Leu^16,Ala^20,Lys^24,Leu^27,Ser^28]-Glucagon] (H-HSQGTFTSDYSRYLDLRRAADFVK([γGlu-γGlu-γGlu-γGlu-Butyryl])WLLST-OH) | 0.021 nM
CC(=O)N[C@@H](CCC(=O)N[C@@H](CCC(=O)N[C@@H](CCC(=O)N[C@@H](CCC(=O)NCCCC[C@H](NC(=O)[C@@H](NC(=O)[C@H](Cc1ccccc1)NC(=O)[C@H](CC(=O)O)NC(=O)[C@H](CCC(N)=O)NC(=O)[C@H](C)NC(=O)[C@H](CCCNC(=N)N)NC(=O)[C@H](CCCNC(=N)N)NC(=O)[C@H](CC(C)C)NC(=O)[C@H](CC(=O)O)NC(=O)[C@H](CC(C)C)NC(=O)[C@H](Cc1ccc(O)cc1)NC(=O)[C@H](CCCCN)NC(=O)[C@H](CO)NC(=O)[C@H](Cc1ccc(O)cc1)NC(=O)[C@H](CC(=O)O)NC(=O)[C@H](CO)NC(=O)[C@@H](NC(=O)[C@H](Cc1ccccc1)NC(=O)[C@@H](NC(=O)CNC(=O)[C@H](CCC(N)=O)NC(=O)CNC(=O)[C@@H](N)Cc1c[nH]cn1)[C@@H](C)O)[C@@H](C)O)C(C)C)C(=O)N[C@@H](Cc1c[nH]c2ccccc12)C(=O)N[C@@H](CC(C)C)C(=O)N[C@@H](CC(C)C)C(=O)N[C@@H](CO)C(=O)N[C@H](C(=O)O)[C@@H](C)O)C(=O)O)C(=O)O)C(=O)O)C(=O)O [Example 55, N^ε24-[(4S)-4-[[(4S)-4-[[(4S)-4-[[(4S)-4-acetamido-4-carboxybutanoyl]amino]-4-carboxybutanoyl]amino]-4-carboxybutanoyl]amino]-4-carboxybutanoyl]-[Gly^2,Leu^16,Lys^24,Leu^27,Ser^28]-Glucagon] (H-HGQGTFTSDYSKYLDLRRAQDFVK([γGlu-γGlu-γGlu-γGlu-Ac])WLLST-OH) | 0.051 nM
CC(=O)N[C@@H](CCC(=O)N[C@@H](CCC(=O)N[C@@H](CCC(=O)N[C@@H](CCC(=O)NCCCC[C@H](NC(=O)[C@@H](NC(=O)[C@H](Cc1ccccc1)NC(=O)[C@H](CC(=O)O)NC(=O)[C@H](CCC(N)=O)NC(=O)[C@H](C)NC(=O)[C@H](CCCNC(=N)N)NC(=O)[C@H](CCCNC(=N)N)NC(=O)[C@H](Cc1ccccc1)NC(=O)[C@H](CC(=O)O)NC(=O)[C@H](CC(C)C)NC(=O)[C@H](Cc1ccc(O)cc1)NC(=O)[C@H](CCCCN)NC(=O)[C@H](CO)NC(=O)[C@H](Cc1ccc(O)cc1)NC(=O)[C@H](CC(=O)O)NC(=O)[C@H](CO)NC(=O)[C@@H](NC(=O)[C@H](Cc1ccccc1)NC(=O)[C@@H](NC(=O)CNC(=O)[C@H](CCC(N)=O)NC(=O)[C@H](CO)NC(=O)[C@@H](N)Cc1c[nH]cn1)[C@@H](C)O)[C@@H](C)O)C(C)C)C(=O)N[C@@H](Cc1c[nH]c2ccccc12)C(=O)N[C@@H](CC(C)C)C(=O)N[C@@H](CC(C)C)C(=O)N[C@@H](CO)C(=O)N[C@H](C(=O)O)[C@@H](C)O)C(=O)O)C(=O)O)C(=O)O)C(=O)O [Example 35] | 0.0028 nM
